Experimental data taken from US20260001914A1, “MACROCYCLIC PEPTIDES TARGETING KRAS” (Merck Sharp & Dohme LLC, priority 2022, published 2026).
*1 amine or outer side, *2 acyl side, *3 side chain or, on linkers, in order; H or OH if unused. Where a SMILES comes first, the peptide text is derived from it. Bridges are numbered along the chain shown (N, C = ends). [ ]: non-standard residue; d: D form. NMeNva(5-imidazol-1-yl) = CN[C@@H](CCCn1ccnc1)C(=O)O; Phe(4-guanidino) = N=C(N)Nc1ccc(C[C@H](N)C(=O)O)cc1; X65 = O=C([C@H](CCCn1ccnc1[N+](=O)[O-])N[*:1])[*:2]; Ala(pyrimidin-5-yl) = N[C@@H](Cc1cncnc1)C(=O)O; Phe(4-CH2NH2) = NCc1ccc(C[C@H](N)C(=O)O)cc1; NMePhe(3-F) = CN[C@@H](Cc1cccc(F)c1)C(=O)O; X42 = O=C([C@H](Cc1cc(F)ncc1F)N[*:1])[*:2]; X10 = CS(=O)(=O)CCCCN(CC(=O)[*:2])[*:1]; X13 = O=C([C@H](Cc1ccncc1F)N[*:1])[*:2]; 1Nal = N[C@@H](Cc1cccc2ccccc12)C(=O)O; X21 = O=C([C@@H]1C[C@H]1CN[*:1])[*:2]; Ala(cPent) = N[C@@H](CC1CCCC1)C(=O)O; Phe(2-F) = N[C@@H](Cc1ccccc1F)C(=O)O; NMe3Pal = CN[C@@H](Cc1cccnc1)C(=O)O; X1 = O=C(C12CC(CN[*:1])(C1)C2)[*:2]; X12 = CC(=O)NCCCN(CC(=O)[*:2])[*:1]; Ala(cPr) = N[C@@H](CC1CC1)C(=O)O; NMeF = CN[C@@H](Cc1ccccc1)C(=O)O; PhLac = O=C(O)[C@@H](O)Cc1ccccc1; X4 = O=C([C@H](CCCF)N[*:1])[*:2]; 3Pal = N[C@@H](Cc1cccnc1)C(=O)O; d3Pal = N[C@H](Cc1cccnc1)C(=O)O; X50 = CC(CCCC(=O)[*:2])N[*:1]; d(αMeC) = C[C@@](N)(CS)C(=O)O; Ahp(2) = CCCCC[C@H](N)C(=O)O; Cba = N[C@@H](CC1CCC1)C(=O)O; hLeu = CC(C)CC[C@H](N)C(=O)O; αMeC = C[C@](N)(CS)C(=O)O; NMeA = CN[C@@H](C)C(=O)O; Nle = CCCC[C@H](N)C(=O)O; Nva = CCC[C@H](N)C(=O)O

These molecules were tested against KRAS-G12D protein (Homo sapiens, UniProt P01116, G12D) (assay: SOS-mediated nucleotide exchange assay (BODIPY-GDP / Tb-streptavidin TR-FRET)).
Sequence of KRAS-G12D protein (P01116 1-188 isoform P01116-2 G12D): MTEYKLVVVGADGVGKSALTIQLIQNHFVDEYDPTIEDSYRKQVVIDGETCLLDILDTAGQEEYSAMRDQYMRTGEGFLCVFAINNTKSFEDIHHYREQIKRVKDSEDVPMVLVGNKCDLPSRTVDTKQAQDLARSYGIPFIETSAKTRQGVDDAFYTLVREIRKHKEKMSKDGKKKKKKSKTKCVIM
Format: biochemical
`CCCC[C@@H]1NC(=O)[C@H](Cc2ccc(CNC(C)=O)cc2)NC(=O)[C@H](CCCNC(=N)N)NC(=O)[C@H](Cc2cccc3ccccc23)NC(=O)CSC[C@](C)(C(=O)O)NC(=O)[C@H](Cc2ccccc2)N(C)C(=O)[C@H](CCCC)NC(=O)[C@H](Cc2ccc(O)cc2)NC1=O` [compound 145, cyclo(INal-R-Phe4CH2NHAc-Nle-Y-Nle-NMeF-daMeC-ClAc)] ({CH2CO}-[1Nal]R[Phe(4-CH2NH2)](Ac)[Nle]Y[Nle][NMeF][d(αMeC)]-OH; thioether N-8) was tested, and the EC50 was 7030 nM. With `CCCC[C@@H]1NC(=O)[C@H](Cc2ccc(OC)cc2)NC(=O)[C@H](CC2CCC2)NC(=O)[C@H](Cc2cccnc2)NC(=O)[C@H](CCCNC(=N)N)NC(=O)[C@H](Cc2ccccc2)NC(=O)C23CC(CNC(=O)[C@H](Cc4ccccc4)N(C)C1=O)(C2)C3` [compound 98, cyclo(F-R-3Pal-cBuA-TyrOMe-Nle-NMeF-amBCP)] (cyclo(FR[3Pal][Cba]Y(Me)[Nle][NMeF][X1])) the EC50 was 5.47 nM. With `CCCC[C@@H]1NC(=O)[C@H](Cc2ccc(NC(=N)N)cc2)NC(=O)[C@H](CCCNC(=N)N)NC(=O)[C@H](Cc2ccccc2)NC(=O)CCCC(C)NC(=O)[C@H](Cc2ccccc2)N(C)C(=O)[C@H](CCCC)NC(=O)[C@H](Cc2ccc(OC)cc2)NC1=O` (stereo partly drawn) [compound 93, cyclo(F-R-Phe4Gn-Nle-TyrOMe-Nle-NMeF-SamHex)] (cyclo(FR[Phe(4-guanidino)][Nle]Y(Me)[Nle][NMeF][X50])) the EC50 was 142 nM. Molecule `CC(C)CC[C@@H]1NC(=O)[C@H](Cc2cc(F)ncc2F)NC(=O)[C@H](CC2CC2)NC(=O)[C@H](Cc2cncnc2)NC(=O)[C@H](C)N(C)C(=O)[C@H](Cc2ccccc2)OC(=O)C23CC(CNC(=O)[C@H](Cc4ccccc4)N(C)C1=O)(C2)C3` [compound 280, cyclo(FLac-NMcA-PyrimAla-cPrA-4Pal25F2-hL-NMeF-amBCP)] (cyclo([Ala(cPr)][X42][hLeu][NMeF][X1][PhLac][NMeA][Ala(pyrimidin-5-yl)])) has an EC50 of 4 nM. `CC(C)CC[C@@H]1NC(=O)[C@H](Cc2ccncc2F)NC(=O)[C@H](CC2CC2)NC(=O)[C@H](Cc2cncnc2)NC(=O)[C@H](C)N(C)C(=O)[C@H](Cc2ccccc2)OC(=O)C23CC(CNC(=O)[C@H](Cc4ccccc4)N(C)C1=O)(C2)C3` [compound 214, cyclo(FLac-NMeA-PyrimAla-cPrA-4Pal2F-hL-NMeF-amBCP)] (cyclo([Ala(cPr)][X13][hLeu][NMeF][X1][PhLac][NMeA][Ala(pyrimidin-5-yl)])) gave an EC50 of 2.69 nM. For `CCCCC[C@@H]1NC(=O)[C@H](Cc2ccc(OC)cc2)NC(=O)[C@H](CC2CCC2)NC(=O)[C@H](Cc2ccc(NC(=N)N)cc2)NC(=O)CN(CCCNC(C)=O)C(=O)[C@H](Cc2ccccc2)NC(=O)CSC[C@@](C)(C(N)=O)NC(=O)[C@H](Cc2ccccc2)N(C)C1=O` [compound 387, cyclo(F-AcApG-Phe4Gn-cBuA-TyrOMe-Ahp-NMcF-aMeCl-ClAc)] ({CH2CO}-F[X12][Phe(4-guanidino)][Cba]Y(Me)[Ahp(2)][NMeF][αMeC]-NH2; thioether N-8), the EC50 was 164 nM. With `CCCCC[C@@H]1NC(=O)[C@H](Cc2ccc(OC)cc2)NC(=O)[C@H](CCCC)NC(=O)[C@H](Cc2ccc(NC(=N)N)cc2)NC(=O)[C@H](CCCNC(=N)N)NC(=O)[C@H](Cc2ccccc2)NC(=O)CSC[C@H](C(N)=O)NC(=O)[C@H](Cc2ccccc2)N(C)C1=O` [compound 350, cyclo(F-R-Phe4Gn-Nle-TyrOMe-Abp-NMeF-dCl-ClAc)] ({CH2CO}-FR[Phe(4-guanidino)][Nle]Y(Me)[Ahp(2)][NMeF][dC]-NH2; thioether N-8) the EC50 was 35.4 nM. `CCCC[C@@H]1NC(=O)[C@H](Cc2cccnc2)NC(=O)[C@H](C)N(C)C(=O)[C@H](Cc2ccccc2)OC(=O)C23CC(CNC(=O)[C@H](Cc4cccnc4)N(C)C(=O)[C@H](CCC)NC(=O)[C@H](Cc4ccccc4F)NC1=O)(C2)C3` [compound 116, cyclo(FLac-NMeA-3Pal-Nle-Phe2F-Nva-NMe3Pal-amBCP)] (cyclo([3Pal][Nle][Phe(2-F)][Nva][NMe3Pal][X1][PhLac][NMeA])) showed an EC50 of 154 nM. `CCCC[C@@H]1NC(=O)[C@H](Cc2ccccc2F)NC(=O)[C@H](CC2CCC2)NC(=O)[C@@H](Cc2cccnc2)NC(=O)[C@H](CCCn2ccnc2[N+](=O)[O-])NC(=O)[C@H](Cc2ccccc2)NC(=O)C23CC(CNC(=O)[C@H](Cc4cccnc4)N(C)C1=O)(C2)C3` [compound 107, cyclo(F-NO2IMNva-d3Pal-cBuA-Phe2F-Nle-NMe3Pal-amBCP)] (cyclo(F[X65][d3Pal][Cba][Phe(2-F)][Nle][NMe3Pal][X1])) showed an EC50 of 242 nM. Work on `CC(C)CC[C@@H]1NC(=O)[C@H](Cc2ccccc2F)NC(=O)[C@H](CC2CCCC2)NC(=O)[C@H](Cc2cncnc2)NC(=O)[C@H](C)N(C)C(=O)[C@H](Cc2ccccc2)OC(=O)C23CC(CNC(=O)[C@H](Cc4ccccc4)N(C)C1=O)(C2)C3` [compound 135, cyclo(FLac-NMcA-PyrimAla-cPeA-Phe2F-hL-NMeF-amBCP)] (cyclo([Ala(cPent)][Phe(2-F)][hLeu][NMeF][X1][PhLac][NMeA][Ala(pyrimidin-5-yl)])) yielded an EC50 of 4.13 nM. Molecule `CCCC[C@@H]1NC(=O)[C@H](Cc2cncnc2)NC(=O)[C@H](C)N(C)C(=O)[C@H](Cc2ccccc2)OC(=O)C23CC(CNC(=O)[C@H](Cc4cccc(F)c4)N(C)C(=O)[C@H](CCCC)NC(=O)[C@H](Cc4ccccc4F)NC1=O)(C2)C3` [compound 174, cyclo(FLac-NMeA-PyrimAla-Nle-Phe2F-Nle-NMePhe3F-amBCP)] (cyclo([NMeA][Ala(pyrimidin-5-yl)][Nle][Phe(2-F)][Nle][NMePhe(3-F)][X1][PhLac])) has an EC50 of 12.2 nM. `CCCC[C@@H]1NC(=O)[C@H](Cc2ccccc2F)NC(=O)[C@H](CCCF)NC(=O)[C@H](Cc2cccnc2)NC(=O)[C@H](C)N(C)C(=O)[C@H](Cc2ccccc2)OC(=O)C23CC(CNC(=O)[C@H](Cc4cccnc4)N(C)C1=O)(C2)C3` [compound 120, cyclo(FLac-NMeA-3Pal-NvaF-Phe2F-Nle-NMe3Pal-amBCP)] (cyclo([3Pal][X4][Phe(2-F)][Nle][NMe3Pal][X1][PhLac][NMeA])) showed an EC50 of 35.1 nM. Molecule `CCCC[C@@H]1NC(=O)[C@H](Cc2cccnc2)NC(=O)[C@H](CCCn2ccnc2)N(C)C(=O)[C@H](Cc2ccccc2)NC(=O)[C@@H]2C[C@H]2CNC(=O)[C@H](Cc2cccnc2)N(C)C(=O)[C@H](CCCC)NC(=O)[C@H](Cc2ccccc2F)NC1=O` [compound 251, cyclo(F-NMeNvalmid-3Pal-Nle-Phe2F-Nle-NMe3Pal-tamcPr)] (cyclo(F[NMeNva(5-imidazol-1-yl)][3Pal][Nle][Phe(2-F)][Nle][NMe3Pal][X21])) has an EC50 of 272 nM. `CCCC[C@@H]1NC(=O)[C@H](Cc2cccnc2)NC(=O)CN(CCCCS(C)(=O)=O)C(=O)[C@H](Cc2ccccc2)OC(=O)C23CC(CNC(=O)[C@H](Cc4cccnc4)N(C)C(=O)[C@H](CCCC)NC(=O)[C@H](Cc4ccccc4F)NC1=O)(C2)C3` [compound 407, cyclo(FLac-NOHmsbGly-3Pal-Nle-Phe2F-Nle-NMe3Pal-amBCP)] (cyclo([3Pal][Nle][Phe(2-F)][Nle][NMe3Pal][X1][PhLac][X10])) showed an EC50 of 367 nM. `COc1ccc(C[C@@H]2NC(=O)[C@H](CC3CCC3)NC(=O)[C@H](Cc3cccnc3)NC(=O)[C@H](CCCNC(=N)N)NC(=O)[C@H](Cc3ccccc3)NC(=O)CSC[C@](C)(C(N)=O)NC(=O)[C@@H]3CCCCCCCC[C@H](NC2=O)C(=O)N3C)cc1` [SEQ ID NO: 193, cyclo(F-R-3Pal-cBuA-TyrOMe-AheNMeAhe-aMeC-C1Ac)] gave an EC50 of 900 nM.
